This note sets out measurements from US10577373B2, “TYK2 inhibitors and uses thereof” (Nimbus Lakshmi, Inc., priority 2017, dated 2020).

pIC50: −log10 of the molar value. Read-outs that look alike come from different tables or passages of the source.

Assay [1] has as its system IL-12 induced STAT4 phophorylation mediated by Tyk2/JAK2 (heterodimeric complex). The assay can be described thus: IL-12 Induced pSTAT4 in Human PBMC. It counts as cell-based. The note with it: 1.7 ng/mL IL-12. The source says:
The IL-12 Induced pSTAT4 assay evaluates the inhibition of IL-12 induced STAT4 phophorylation mediated by Tyk2/JAK2 (heterodimeric complex).

Assay [2] concerns GM-CSF induced STAT5 phosphorylation mediated by the JAK2/JAK2 homdimeric complex. The assay can be described thus: GM-CSF Induced pSTAT5 in Human PBMC. The note with it: GM-CSF 5 ng/mL for 20 minutes, pSTAT5.
From the text: Human PBMC are isolated from buffy coat and are stored frozen for assays as needed.
Where [3] appears, read: read-out: PBMC_GMCSF_pSTAT5 IC50, human PBMC.
Setting [4] is: Homo sapiens, PBMC, 20 min, read-out: PBMC_GMCSF_pSTAT5 IC50, human PBMC.

Broadly, the pIC50 is the IC50 on a negative log10 scale, so that one unit is a factor of ten. Consider `[2H]C([2H])([2H])Oc1ncccc1Nc1cc(NC)n2ncc(C(=O)N[C@H]3CC[C@H]3O)c2n1` (stereo in doubt) [I-399, N-((1 S,2R)-2-hydroxycyclobutyl)-5-((2-(methoxy-d3)pyridin-3-yl)amino)-7-(methylamino) pyrazolo[1,5-a]pyrimidine-3-carboxamide], for which the pIC50 is over 7.00 in assay [1] and under 4.90 in assay [2] (setting [3]).

With `CNc1cc(Nc2cc(F)cn(-c3cnn(C)c3)c2=O)nc2c(C(=O)N[C@H]3C[C@H]3F)cnn12` [I-381], the pIC50 in assay [1] was over 7.00; in assay [2] (setting [4]), under 4.90.

Take `CNc1cc(Nc2cccn(-c3cc(C)on3)c2=O)nc2c(C(=O)N[C@H]3C[C@H]3F)cnn12` [I-161]: the pIC50 in assay [1] was over 7.00; in assay [2] (setting [4]), under 4.90.

`CNc1cc(Nc2cc(C)cnc2OC2CC2)nc2c(C(=O)NC3CC3)cnn12` [I-277]: the pIC50 in assay [1] is 6.30 to 7.00; in assay [2] (setting [4]), under 4.30.

As to `CNc1cc(Nc2cccn([C@H]3CC[C@](C)(OC)CC3)c2=O)nc2c(C(=O)N[C@H]3C[C@H]3F)cnn12` [I-362], the pIC50 in assay [1] was over 7.00; in assay [2] (setting [4]) it was under 4.30.

With `CNc1cc(Nc2cc(F)cnc2OCCOC)nc2c(C(=O)N[C@H]3C[C@H]3F)cnn12` [I-285], the pIC50 is over 7.00 in assay [1] and under 4.30 in assay [2] (setting [4]).

Turning to `CNc1cc(Nc2cccn(-c3ncc(C)s3)c2=O)nc2c(C(=O)N[C@H]3CC[C@@H]3O)cnn12` (stereo in doubt) [I-676, N-(2-hydroxycyclobutyl)-7-(methylamino)-5-((1-(5-methylthiazol-2-yl)-2-oxo-1,2-dihydropyridin-3-yl)amino)pyrazolo[1,5-a]pyrimidine-3-carboxamide], the pIC50 in assay [1] was over 7.00; in assay [2] (setting [4]), under 5.60.

On to `CNc1cc(Nc2cccn(-c3cnn(C)c3)c2=O)nc2c(C(=O)NC3CC3)cnn12` [I-295], for which the pIC50 in assay [1] is over 7.00; in assay [2] (setting [4]), under 4.30.

Turning to `CNc1cc(Nc2cc(F)cnc2OC2CC2)nc2c(C(=O)N[C@H]3C[C@H]3F)cnn12` [I-275], the figures for the pIC50 in assay [1] and in assay [2] (setting [4]) were over 7.00 and under 4.30, respectively.

For the compound `CNc1cc(Nc2cccn(-c3nc(C)co3)c2=O)nc2c(C(=O)N[C@@H]3CC[C@@H]3O)cnn12` [I-706], the pIC50 was over 7.00 in assay [1] and under 4.30 in assay [2] (setting [4]).

Turning to `CNc1cc(Nc2cccnc2OC)nc2c(C(=O)N[C@H]3C[C@H]3F)cnn12` [I-110], the pIC50 in assay [1] was over 7.00; in assay [2] (setting [4]) it was under 4.30.

Turning to `CNc1cc(Nc2cccn([C@H]3CCCOC3)c2=O)nc2c(C(=O)N[C@@H]3CC[C@H]3O)cnn12` [I-725], the pIC50 in assay [1] was over 7.00; in assay [2] (setting [4]), under 5.60.

As for `CNc1cc(Nc2cccn([C@H]3CC[C@@H](OC)CC3)c2=O)nc2c(C(=O)N[C@H]3C[C@H]3F)cnn12` [I-357], the pIC50 was over 7.00 in assay [1] and under 5.60 in assay [2] (setting [4]).

Turning to `CNc1cc(Nc2cc(C)cc(C)c2)nc2c(C(N)=O)cnn12` [I-2, 5-((3,5-dimethylphenyl)amino)-7-(methylamino)pyrazolo[1,5-a]pyrimidine-3-carboxamide], the values for the pIC50 in assay [1] and in assay [2] (setting [4]) were over 7.00 and under 4.30, respectively.

In the case of `CNc1cc(Nc2cc(Cl)cn([C@@H]3CCCN(C)C3)c2=O)nc2c(C(=O)NC3CC3)cnn12` [I-819], the pIC50 is over 7.00 in assay [1] and under 4.30 in assay [2] (setting [4]).

Consider `CNc1cc(Nc2cc(C)cn(-c3cnn(C)c3)c2=O)nc2c(C(N)=O)cnn12` [I-31], for which the pIC50 in assay [1] was 6.30 to 7.00; in assay [2] (setting [4]), under 6.52.

On to `CNc1cc(Nc2cc(F)cn(-c3ccn(C)n3)c2=O)nc2c(C(=O)NC3CC3)cnn12` [I-378], for which the pIC50 is over 7.00 in assay [1] and under 4.90 in assay [2] (setting [4]).

Turning to `CNc1cc(Nc2cccnc2OC2CC2)nc2c(C(=O)NC3CCC3O)cnn12` (stereo in doubt) [I-366, 5-((2-cyclopropoxypyridin-3-yl)amino)-N-((1R,2R)-2-hydroxycyclobutyl)-7-(methylamino)pyrazolo[1,5-a]pyrimidine-3-carboxamide], the pIC50 is over 7.00 in assay [1] and under 4.30 in assay [2] (setting [4]).

For `CNc1cc(Nc2cc(F)cc(F)c2F)nc2c(C(=O)NC3CC3)cnn12` [I-5], the results for the pIC50 in assay [1] and in assay [2] (setting [4]) were over 7.00 and under 4.30, respectively.

As to `CNc1cc(Nc2cccn(-c3ccc(F)cn3)c2=O)nc2c(C(=O)NC3CCC3)cnn12` [I-238], the pIC50 is over 7.00 in assay [1] and under 4.30 in assay [2] (setting [4]).

`[2H]C([2H])([2H])Oc1ncccc1Nc1cc(NC)n2ncc(C(=O)N[C@@H]3CC[C@@H]3O)c2n1` (stereo in doubt) [I-391, N-(2-hydroxycyclobutyl)-5-((2-(methoxy-d3)pyridin-3-yl)amino)-7-(methylamino)pyrazolo[1,5-a]pyrimidine-3-carboxamide]: the pIC50 in assay [1] is over 7.00; in assay [2] (setting [3]), under 4.30.

Consider `CNc1cc(-c2cn(C(C)C)c3ncccc23)nc2c(C(=O)N[C@H]3C[C@H](O)C3)cnn12` [I-630, N-((1r,3r)-3-hydroxycyclobutyl)-5-(1-isopropyl-1H-pyrrolo[2,3-b]pyridin-3-yl)-7-(methylamino)pyrazolo[1,5-a]pyrimidine-3-carboxamide], for which the negative-log IC50 (pIC50) in assay [1] is over 7.00; in assay [2] (setting [4]), under 5.60.

In the case of `CNc1cc(Nc2cc(Cl)cn([C@H]3CCCOC3)c2=O)nc2c(C(=O)N[C@@H]3C[C@@H]3F)cnn12` [I-772], the pIC50 in assay [1] was over 7.00; in assay [2] (setting [4]), under 6.52.

`CNc1cc(Nc2cccn(CCOC)c2=O)nc2c(C(=O)NC3CCC3)cnn12` [I-269]: the pIC50 in assay [1] was over 7.00; in assay [2] (setting [4]), under 4.30.

In the case of `CNc1cc(Nc2cccn(-c3nc(C)co3)c2=O)nc2c(C(=O)NC3CC3)cnn12` [I-368], the results for the pIC50 in assay [1] and in assay [2] (setting [4]) were over 7.00 and under 4.90, respectively.

`CNc1cc(-c2cn(C(C)C)c3ncccc23)nc2c(C(=O)N[C@@H]3C[C@@H]3F)cnn12` (stereo in doubt) [I-225, N-((1R,2S)-2-fluorocyclopropyl)-5-(1-isopropyl-1H-pyrrolo[2,3-b]pyridin-3-yl)-7-(methylamino)pyrazolo[1,5-a]pyrimidine-3-carboxamide]: the pIC50 was over 7.00 in assay [1] and under 4.30 in assay [2] (setting [4]).

With `CNc1cc(Nc2cc(F)cn(-c3cc(C)n(C)n3)c2=O)nc2c(C(=O)NC3CC3)cnn12` [I-384], the figures for the pIC50 in assay [1] and in assay [2] (setting [4]) were over 7.00 and under 6.52, respectively.

Regarding `CNc1cc(Nc2cc(F)cn(-c3ccn(C)n3)c2=O)nc2c(C(=O)N[C@H]3C[C@H]3F)cnn12` [I-379], the results for the pIC50 in assay [1] and in assay [2] (setting [4]) were over 7.00 and under 5.60, respectively.

`CNc1cc(Nc2cccn(C3CCCOC3)c2=O)nc2c(C(=O)NC3CCC3)cnn12` (racemic) [I-324]: the pIC50 in assay [1] was over 7.00; in assay [2] (setting [4]), under 4.30.

As for `CNc1cc(-c2cn(C(C)C)c3ncccc23)nc2c(C(=O)N[C@@H]3CC[C@H]3O)cnn12` (stereo in doubt) [I-586, N-((1R,2R)-2-hydroxycyclobutyl)-5-(1-isopropyl-1H-pyrrolo[2,3-b]pyridin-3-yl)-7-(methylamino)pyrazolo[1,5-a]pyrimidine-3-carboxamide], the pIC50 in assay [1] is over 7.00; in assay [2] (setting [3]) it was under 4.30.

Regarding `CNc1cc(Nc2cc(Cl)cn([C@H]3CCCOC3)c2=O)nc2c(C(=O)NC3CC3)cnn12` [I-782], the pIC50 was over 7.00 in assay [1] and under 4.30 in assay [2] (setting [4]).

On to `CNc1cc(-c2cn(C(C)C)c3ncccc23)nc2c(C(=O)N[C@@H]3CC[C@H]3O)cnn12` [I-640], for which the values for the pIC50 in assay [1] and in assay [2] (setting [4]) were over 7.00 and under 4.90, respectively.
